In patent publication US7098012B1, “DNA demethylase, therapeutic and diagnostic uses thereof” (McGill University, priority 1997, dated 2006):
“Also recorded” adds a separate entry of the source.

Key:
DNA dMTase [1] = test: Demethylation of [mdC32pdG]n substrate (conversion of mdCMP to dCMP) with additives or pretreatment; type: biochemical, human; details: 500 μM, initial rate conditions, FIG. 2a
Experimental: (A) To assay the conversion of methyl-dCMP (mdCMP) to dCMP we used a previously described method (Szyf et al., 1995). Briefly, α^32P labeled, fully methylated poly[mdC^32PdG]n substrate was prepared as follows. One hundred ng of a double-stranded fully methylated (mdCpdG) oligomer (Pharmacia) were denatured by boiling, which was followed by partial annealing at room temperature. The complementary strand was extended with Klenow fragment (Boehringer Mannheim) using methyl-5-dCTP (mdCTP, 0.1 mM) (Boehringer Mannheim) and […] (100 μCi, 3000 Ci/mmol), and the unincorporated nucleotides were removed by chromatography through a NAP-5 column (Pharmacia). The NAP-5 chromatography was repeated to exclude minor contamination with unincorporated nucleotides. As a control a non-methylated poly[dC^32pdG]n substrate was similarly prepared except that a nonmethylated dCpdG oligomer served as a template and dCTP was used in the extension reaction. The column fractions (30 μl), described in the experimental procedures were incubated with 1 ng of poly[mdC^32pdG]n substrate for 1 hour at 37° C. in a buffer L containing 25% glycerol (v/v) and 5 mM EDTA. […] The digestion products were loaded onto a thin layer chromatography plate (TLC) (Kodak, 13255 Cellulose), separated in a medium containing, 132 ml Isobutyric acid:40 ml water:4 ml ammonia solution, autoradiographed and the intensity of the different spots was determined using a phosphorimager (Fuji, BAS 2000). ^32P labeled substrates and tritium labeled substrates were phosphoimaged using BAS 2000 plate and BAS-TR2040 phosphorimager plate respectively. (B) The second method determined removal of methylated residues from methylated DNA by measuring disappearance of ^3H—CH3 or ^14C—CH3 from the reaction mixture. […] The number of methyl groups that were removed from the DNA by the different fractions was determined by subtracting the remaining counts in each of the fractions from the counts remaining in the control. […]

DNA dMTase [2] = target: DNA dMTase (Homo sapiens, UniProt Q9UBB5); test: Volatilization of radioactive methyl residues assay; type: biochemical; details: imidazole 1 μM to 10 mM; FIG. 16
Sequence of DNA dMTase (Homo sapiens, UniProt Q9UBB5) (Q9UBB5 whole entry): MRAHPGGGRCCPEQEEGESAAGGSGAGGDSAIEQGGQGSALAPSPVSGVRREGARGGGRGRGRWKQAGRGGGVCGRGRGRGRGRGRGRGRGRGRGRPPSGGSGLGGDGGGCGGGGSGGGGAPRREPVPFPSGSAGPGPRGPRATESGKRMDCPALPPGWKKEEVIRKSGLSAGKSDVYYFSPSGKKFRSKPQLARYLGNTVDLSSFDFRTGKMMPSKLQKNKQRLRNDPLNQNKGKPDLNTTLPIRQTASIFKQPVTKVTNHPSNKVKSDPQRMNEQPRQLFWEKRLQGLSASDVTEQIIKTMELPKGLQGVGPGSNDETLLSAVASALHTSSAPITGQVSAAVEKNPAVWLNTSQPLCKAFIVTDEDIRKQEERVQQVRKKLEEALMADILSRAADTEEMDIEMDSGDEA

SMILES	inhibition of demethylation of the [mdC32pdG]n substrate (DNA dMTase [1])	inhibition of DNA dMTase activity (DNA dMTase [2])	inhibition of demethylation of the [mdC32pdG]n substrate (DNA dMTase [1]; listed as methyl dCTP)
Nc1ccn([C@H]2CC[C@@H](COP(=O)(O)OP(=O)(O)OP(=O)(O)O)O2)c(=O)n1 [ddCTP]	insensitive; also recorded: does not inhibit		
c1c[nH]cn1 [imidazole]		dose dependent inhibition	
Cc1cn([C@H]2C[C@H](O)[C@@H](COP(=O)(O)OP(=O)(O)OP(=O)(O)O)O2)c(=O)nc1N [methyl-dCTP, methyl-5-dCTP]	nor is it inhibited		not affected
